Assay results published in patent publication US20260285888A1, “HETEROCYCLIC COMPOUND AND USE THEREOF” (OTSUKA PHARMACEUTICAL CO., LTD., priority 2023, published 2026).

Columns and labels:
[1] = Study for confirmation of conversion to brexpiprazole in a buffer (stability of the evaluation compounds); format: physicochemical; conditions: in buffer, average of duplicate; for Concentration of brexpiprazole formed: 60-minute reaction sample; for Concentration of evaluation compound decreased: decrease in 60-minute vs 0-minute reaction sample
Summary of the method: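 Compounds (final 1 μmol/L, from 100 μmol/L working solutions) incubated in buffer at 37° C. for 0 or 60 min, in duplicate, after 3 min pre-incubation of the reaction solution. Reactions stopped with acetonitrile/isopropanol (4:1) containing internal standards; compound and formed brexpiprazole quantified against 0.01–1 μmol/L calibration samples.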

in vitro = format: cell-based, human; conditions: human, differentiated hl-60 cells, 300 μmol/L, about 24 hours, PMA-differentiated HL-60 cells, LDH; no-treatment 0%, cell lysis buffer 100%; read-out: cytotoxicity (%) Evaluation compound results
Summary of the method: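 HL-60 cells differentiated ~72 h with 10 nM PMA, then exposed ~24 h to compound at 300 μmol/L final in RPMI with 2% FBS. LDH release in supernatant gave cytotoxicity % scaled between untreated (0%) and lysis-buffer (100%) groups; triplicate.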

SMILES	Concentration of brexpiprazole formed [1] [nM]	Concentration of evaluation compound decreased [1] [nM]	cytotoxicity at 24 h, 300 µM (in vitro) [%]
COCCOCCOC(=O)OCOP(=O)([O-])OC[N+]1(CCCCOc2ccc3ccc(=O)[nH]c3c2)CCN(c2cccc3sccc23)CC1 [EX 34, (4-(benzo[b]thiophen-4-yl)-1-(4-((2-oxo-1,2-dihydroquinolin-7-yl)oxy)butyl)piperazin-1-ium-1-yl)methyl (3-oxo-2,4,7,10-tetraoxaundecyl) phosphate]	0	10	-10
CC(C)(C)OC(=O)NC(C)(C)C(=O)OCOP(=O)([O-])OC[N+]1(CCCCOc2ccc3ccc(=O)[nH]c3c2)CCN(c2cccc3sccc23)CC1 [EX 128, (4-(benzo[b]thiophen-4-yl)-1-(4-((2-oxo-1,2-dihydroquinolin-7-yl)oxy)butyl)piperazin-1-ium-1-yl)methyl (((2-(tert-butoxycarbonyl)amino)-2-methylpropanoyl)oxy)methyl) phosphate]	0	-30	2
CC(O)CCOP(=O)([O-])OC[N+]1(CCCCOc2ccc3ccc(=O)[nH]c3c2)CCN(c2cccc3sccc23)CC1 (stereo not drawn) [EX 40, (4-(benzo[b]thiophen-4-yl)-1-(4-((2-oxo-1,2-dihydroquinolin-7-yl)oxy)butyl)piperazin-1-ium-1-yl)methyl (3-hydroxybutyl) phosphate]	0	60	-5
O=c1ccc2ccc(OCCCC[N+]3(COP(=O)([O-])OCC4(CO)CC4)CCN(c4cccc5sccc45)CC3)cc2[nH]1 [EX 47, (4-(benzo[b]thiophen-4-yl)-1-(4-((2-oxo-1,2-dihydroquinolin-7-yl)oxy)butyl)piperazin-1-ium-1-yl)methyl ((1-(hydroxymethyl)cyclopropyl)methyl) phosphate]	0	0	-5
CC1(C)OCC(COP(=O)([O-])OC[N+]2(CCCCOc3ccc4ccc(=O)[nH]c4c3)CCN(c3cccc4sccc34)CC2)CO1 [EX 55, (4-(benzo[b]thiophen-4-yl)-1-(4-((2-oxo-1,2-dihydroquinolin-7-yl)oxy)butyl)piperazin-1-ium-1-yl)methyl ((2,2-dimethyl-1,3-dioxan-5-yl)methyl) phosphate]	0	70	-7
O=C(O)CCCC(=O)OCOP(=O)([O-])OC[N+]1(CCCCOc2ccc3ccc(=O)[nH]c3c2)CCN(c2cccc3sccc23)CC1 [EX 70, (4-(benzo[b]thiophen-4-yl)-1-(4-((2-oxo-1.2-dihydroquinolin-7-yl)oxy)butyl)piperazin-1-ium-1-yl)methyl (((4-carboxybutanoyl)oxy)methyl) phosphate]	0	0	-7
CCNP(=O)([O-])OC[N+]1(CCCCOc2ccc3ccc(=O)[nH]c3c2)CCN(c2cccc3sccc23)CC1 [EX 151, (4-(benzo[b]thiophen-4-yl)-1-(4-((2-oxo-1,2-dihydroquinolin-7-yl)oxy)butyl)piperazin-1-ium-1-yl)methyl ethylphosphoramidate]	0	-10	-6
COCCNP(=O)([O-])OC[N+]1(CCCCOc2ccc3ccc(=O)[nH]c3c2)CCN(c2cccc3sccc23)CC1 [EX 152, (4-(benzo[b]thiophen-4-yl)-1-(4-((2-oxo-1,2-dihydroquinolin-7-yl)oxy)butyl)piperazin-1-ium-1-yl)methyl (2-methoxyethyl)phosphoramidate]	0	10	-10
O=c1ccc2ccc(OCCCC[N+]3(COP(=O)([O-])OCCN4CCCCC4)CCN(c4cccc5sccc45)CC3)cc2[nH]1 [EX 118, (4-(benzo[b]thiophen-4-yl)-1-(4-((2-oxo-1,2-dihydroquinolin-7-yl)oxy)butyl)piperazin-1-ium-1-yl)methyl (2-(piperidin-1-yl)ethyl) phosphate]	0	60	-8
COCCOC(=O)CCCCCCCCCCC(=O)OCOP(=O)([O-])OC[N+]1(CCCCOc2ccc3ccc(=O)[nH]c3c2)CCN(c2cccc3sccc23)CC1 [EX 77, (4-(benzo[b]thiophen-4-yl)-1-(4-((2-oxo-1,2-dihydroquinolin-7-yl)oxy)butyl)piperazin-1-ium-1-yl)methyl (((12-(2-methoxyethoxy)-12-oxododecanoyl)oxy)methyl) phosphate]	0	110	6
O=c1ccc2ccc(OCCCC[N+]3(COP(=O)([O-])OC/C=C/CO)CCN(c4cccc5sccc45)CC3)cc2[nH]1 [EX 42, (E)-(4-(benzo[b]thiophen-4-yl)-1-(4-((2-oxo-1,2-dihydroquinolin-7-yl)oxy)butyl)piperazin-1-ium-1-yl)methyl (4-hydroxybut-2-en-1-yl) phosphate]	0	30	8
CC(C)C(=O)OCOP(=O)([O-])OC[N+]1(CCCCOc2ccc3ccc(=O)[nH]c3c2)CCN(c2cccc3sccc23)CC1 [EX 24, (4-(benzo[b]thiophen-4-yl)-1-(4-((2-oxo-1,2-dihydroquinolin-7-yl)oxy)butyl)piperazin-1-ium-1-yl)methyl ((isobutyryloxy)methyl) phosphate]	0	-110	10
CCOCCC(=O)OCOP(=O)([O-])OC[N+]1(CCCCOc2ccc3ccc(=O)[nH]c3c2)CCN(c2cccc3sccc23)CC1 [EX 29, (4-(benzo[b]thiophen-4-yl)-1-(4-((2-oxo-1,2-dihydroquinolin-7-yl)oxy)butyl)piperazin-1-ium-1-yl)methyl (((3-ethoxypropanoyl)oxy)methyl) phosphate]	0	-10	-4
O=c1ccc2ccc(OCCCC[N+]3(COP(=O)([O-])OC/C=C\CO)CCN(c4cccc5sccc45)CC3)cc2[nH]1 [EX 43, (Z)-(4-(benzo[b]thiophen-4-yl)-1-(4-((2-oxo-1,2-dihydroquinolin-7-yl)oxy)butyl)piperazin-1-ium-1-yl)methyl (4-hydroxybut-2-en-1-yl) phosphate]	0	120	-6
COCCOCOCCCCOP(=O)([O-])OC[N+]1(CCCCOc2ccc3ccc(=O)[nH]c3c2)CCN(c2cccc3sccc23)CC1 [EX 53, (4-(benzo[b]thiophen-4-yl)-1-(4-((2-oxo-1.2-dihydroquinolin-7-yl)oxy)butyl)piperazin-1-ium-1-yl)methyl (4-((2-methoxyethoxy)methoxy)butyl) phosphate]	0	60	-3
CC(C)(C)OC(=O)CNP(=O)([O-])OC[N+]1(CCCCOc2ccc3ccc(=O)[nH]c3c2)CCN(c2cccc3sccc23)CC1 [EX 155, (4-(benzo[b]thiophen-4-yl)-1-(4-((2-oxo-1,2-dihydroquinolin-7-yl)oxy)butyl)piperazin-1-ium-1-yl)methyl (2-(tert-butoxy)-2-oxoethyl)phosphoramidate]	0	160	-3
CCOC(=O)C[C@@H](OP(=O)([O-])OC[N+]1(CCCCOc2ccc3ccc(=O)[nH]c3c2)CCN(c2cccc3sccc23)CC1)C(=O)OCC [EX 111, (R)-(4-(benzo[b]thiophen-4-yl)-1-(4-((2-oxo-1,2-dihydroquinolin-7-yl)oxy)butyl)piperazin-1-ium-1-yl)methyl (1,4-diethoxy-1,4-dioxobutan-2-yl) phosphate]	0	20	0
O=C(CCCCCO)OCOP(=O)([O-])OC[N+]1(CCCCOc2ccc3ccc(=O)[nH]c3c2)CCN(c2cccc3sccc23)CC1 [EX 126, (4-(benzo[b]thiophen-4-yl)-1-(4-((2-oxo-1,2-dihydroquinolin-7-yl)oxy)butyl)piperazin-1-ium-1-yl)methyl (6-hydroxyhexanoyl)oxy)methyl) phosphate]	0	160	-7
CCC(=O)OCOP(=O)([O-])OC[N+]1(CCCCOc2ccc3ccc(=O)[nH]c3c2)CCN(c2cccc3sccc23)CC1 [EX 120, (4-(benzo[b]thiophen-4-yl)-1-(4-((2-oxo-1,2-dihydroquinolin-7-yl)oxy)butyl)piperazin-1-ium-1-yl)methyl ((propionyloxy)methyl) phosphate]	0	50	13
CC(C)COC(=O)[C@@H](C)OP(=O)([O-])OC[N+]1(CCCCOc2ccc3ccc(=O)[nH]c3c2)CCN(c2cccc3sccc23)CC1 [EX 107, (R)-(4-(benzo[b]thiophen-4-yl)-1-(4-((2-oxo-1,2-dihydroquinolin-7-yl)oxy)butyl)piperazin-1-ium-1-yl)methyl (1-isobutoxy-1-oxopropan-2-yl) phosphate]	0	70	-6
